# Test results from article PMC13198932, “Pyrazolone-based ERO1 inhibitors in ERO1-driven triple-negative breast cancer and SEPN1-related myopathy: Structure–activity relationship and therapeutic potential” (Pharmacological research, 2025).
# Values joined by “and” are separate entries in the source; they are usually repeats but may differ in a detail not shown here. Equal entries are not always repeated. “Also recorded” adds a separate entry of the source. Where two headings read alike, the source gives them in different places.
# Legend:
# [1] = molecular target: T1, Human monoamine oxidase A (Mao-A) (Homo sapiens, UniProt P21397); assay: Mao-A activity assay (commercial kit, p-tyramine, H2O2 fluorimetry); type: biochemical; settings: 25 μM, 10 min incubation
# T1 construct: purchased Sigma-Aldrich
# T1 sequence (P21397 1-527): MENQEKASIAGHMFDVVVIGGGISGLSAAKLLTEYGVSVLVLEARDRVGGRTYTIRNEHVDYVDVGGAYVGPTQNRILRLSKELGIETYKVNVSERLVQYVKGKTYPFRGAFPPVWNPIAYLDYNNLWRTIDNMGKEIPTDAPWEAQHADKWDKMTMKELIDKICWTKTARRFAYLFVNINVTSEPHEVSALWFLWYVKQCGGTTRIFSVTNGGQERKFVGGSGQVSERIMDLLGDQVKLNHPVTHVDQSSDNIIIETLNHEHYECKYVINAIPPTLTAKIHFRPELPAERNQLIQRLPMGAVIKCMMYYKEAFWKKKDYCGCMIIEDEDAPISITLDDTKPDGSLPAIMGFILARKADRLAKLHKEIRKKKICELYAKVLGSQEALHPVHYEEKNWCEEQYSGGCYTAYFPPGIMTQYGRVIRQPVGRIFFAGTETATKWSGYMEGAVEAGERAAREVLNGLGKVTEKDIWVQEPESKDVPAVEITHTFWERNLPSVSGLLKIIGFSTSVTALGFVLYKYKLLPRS
# Experimental: Mao-A activity was measured using a commercial assay kit according to the manufacturer’s instructions. Mao-A (0.837 μM) was incubated with vehicle (1 % DMSO), Clorgyline (50 μM), or various concentrations (1, 5, or 25 μM) of EN460, I2, I26, or I29 for 10 min. Mao-A catalyzes the oxidative deamination of p-tyramine, generating H2O2, which was quantified fluorimetrically (λex= 530; λem= 585 nm). Mao-A activity is presented as a percentage of the vehicle control.
# [2] = molecular target: recombinant PDI (Homo sapiens, UniProt P07237); assay: PDI activity assay (insulin transhydrogenase / insulin turbidity assay); type: biochemical; settings: 25 μM, 15 min incubation
# Experimental: PDI activity was assessed using an insulin transhydrogenase assay. Bovine insulin (1 mg/mL) in sodium phosphate buffer, pH 7.0, containing 2 mM EDTA, was incubated with 1.4 μM recombinant PDI in the presence of vehicle (1 % DMSO) or various concentrations of isoquercetin (30 or 60 μM), EN460, I2, I26, or I29 (1, 5, or 25 μM) for 15 min. The turbidimetric assay of insulin disulfide reduction by PDI was initiated by adding 1 mM dithiothreitol, and the reaction was monitored at 650 nm for 80 min. PDI activity is presented as a percentage of the vehicle control.
# [3] = molecular target: T2, recombinant ERO1A (Mus musculus, UniProt Q8R180); assay: AUR-based kinetic assay of ERO1A activity (recombinant ERO1A and PDIA1, HRP, Amplex Ultra Red); type: biochemical; settings: for IC50: Table 1 in Fig. 3
# T2 construct: GST-SMT3-mouse ERO1A (residues 43–464); GST-SMT3 (GST-SUMO) (N, cleaved yes); made in house; host or cells: E. coli Rosetta DE3 (Novagen)
# T2 sequence (Q8R180 43-464): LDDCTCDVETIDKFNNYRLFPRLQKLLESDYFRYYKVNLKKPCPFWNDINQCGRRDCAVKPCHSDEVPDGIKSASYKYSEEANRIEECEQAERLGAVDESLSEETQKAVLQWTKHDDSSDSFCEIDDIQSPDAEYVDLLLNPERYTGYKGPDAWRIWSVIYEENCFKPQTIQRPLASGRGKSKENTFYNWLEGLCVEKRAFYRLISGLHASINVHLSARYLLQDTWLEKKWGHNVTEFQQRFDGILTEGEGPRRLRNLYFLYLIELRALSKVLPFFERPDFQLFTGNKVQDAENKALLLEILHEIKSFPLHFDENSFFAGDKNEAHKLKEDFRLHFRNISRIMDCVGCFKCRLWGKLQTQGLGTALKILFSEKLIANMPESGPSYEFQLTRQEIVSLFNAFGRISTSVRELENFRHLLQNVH
# Text: A GST-SMT3-mouse ERO1A (residues 43–464) and His-tagged PDIA1 [30] were expressed in the Rosetta DE3 bacteria (Novagen) and purified as described in [29, 31]. The GST-SMT3 and His tags were cleaved using Ulp protease (Z03691, GenScript) and thrombin protease (T6884, Merck), respectively. Successful tag removal was confirmed by a shift to a lower molecular weight for ERO1A on SDS-PAGE and by the absence of signal in anti-His immunoblotting for PDIA1.
# The kinetic assay of ERO1A activity is based on a reaction involving recombinant ERO1A and PDIA1 proteins, horseradish peroxidase (Worthington), and 5 μM Amplex Ultra Red, as detailed in [29]. The effect of ERO1A inhibitors was evaluated by preincubating the compounds with ERO1A and measuring the inhibition of the linear reaction rate, and the corresponding IC50 values were determined using Prism 10 (GraphPad).
# EN460 and 16 newly synthesized derivatives (I24–I40) (except for I31, which was not evaluated due to potential toxicity associated with its CN group) were evaluated for their ability to inhibit ERO1-dependent AUR fluorescence using a kinetic assay with recombinant ERO1 and PDIA1, as previously described (Figs. 3A and 3B). Raw kinetic data showing AUR fluorescence over time in reactions containing reduced ERO1, PDIA1 and EN460-derivatives are presented in Fig. Sup.1 A and Sup. 1B. Reaction rates, measured in presence or absence of varying concentrations of each compound, were used to calculate IC50 values, defined as the concentration required to inhibit 50 % of ERO1 enzymatic activity (Figs. 3C, 3D and Fig. Sup1C).
# [4] = tested on: MDAMB231 cells; assay: MTS assay of metabolic activity in MDAMB231 cells; type: cell-based, human; settings: MDAMB231, dose-response, 24 h, 1 % FBS
# Experimental: Six thousand cells (MDAMB231 and E0771) per well were seeded in 96-well plates and cultured in medium containing 1 % FBS. Cells were treated with varying concentrations of compounds and, after 24 h, incubated with MTS [3-(4,5-dimethylthiazol-2-yl)-5-(3-carboxymethoxyphenyl)-2-(4 sulfophenyl)2Htetrazolium]and PMS (phenazine methosulfate), following the instructions of the CellTiter 96® Aqueous Non-Radioactive Cell Proliferation Assay (Promega). Measurements were performed using a TECAN Infinite M200 plate reader with […] at 490 nm.
# [5] = tested on: WT and SEPN1 KD C2C12 cells; assay: Super resolution microscopy (SIM) of ER volume and mitochondrial network; type: cell-based; settings: for mitochondrial network (total branch length): SEPN1 KD cells; for ER volume: WT and SEPN1 KD cells
# Text: Structured illumination microscopy (SIM) was done on a Nikon SIM system with a 100 × 1.49 objective. Briefly, randomly selected cells were imaged at laser excitation of 405 nm (nuclei), 561 nm (ER), and 640 nm (mitochondria) with a 3D-SIM acquisition protocol. SIM images were quantified with ImageJ. After background normalization, the ER signals was segmentated to calculate the volume of the ER expressed as fraction of the cell. The segmentated mitochondrial signal was followed by the skeletonize function of ImageJ to perform mitochondria network analysis. We then applied the Analyze Skeleton 2D/3D plugin of ImageJ to measure each cell total branch length, expressed as μm.
# [6] = compounds dissolved in DMSO, preincubated with ERO1A, NA stands for not active, read-out: IC50
# [7] = logarithm of IC50 in μM, compounds dissolved in DMSO, read-out: Log IC50 (confidence intervals) (converted)
# Sequence of recombinant PDI (P07237 18-508, species assumed): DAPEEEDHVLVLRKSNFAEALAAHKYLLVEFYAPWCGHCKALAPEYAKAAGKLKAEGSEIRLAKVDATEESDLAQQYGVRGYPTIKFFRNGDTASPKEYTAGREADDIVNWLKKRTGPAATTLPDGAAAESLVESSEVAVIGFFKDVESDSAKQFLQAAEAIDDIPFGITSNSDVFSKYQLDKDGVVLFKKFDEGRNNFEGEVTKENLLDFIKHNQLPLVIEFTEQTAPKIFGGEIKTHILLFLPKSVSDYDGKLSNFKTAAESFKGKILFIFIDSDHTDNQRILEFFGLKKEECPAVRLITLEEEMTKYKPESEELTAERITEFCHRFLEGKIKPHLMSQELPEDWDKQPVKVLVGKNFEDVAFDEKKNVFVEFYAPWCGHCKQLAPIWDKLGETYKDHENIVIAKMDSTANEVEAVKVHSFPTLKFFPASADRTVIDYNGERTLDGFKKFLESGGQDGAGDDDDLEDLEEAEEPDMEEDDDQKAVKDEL
Compound,Mao-A activity (percentage of the vehicle control) [1],PDI activity (percentage of the vehicle control) [2],"IC50 [3, 6]","IC50 [3, 7] [µM]",metabolic activity (MTS assay) [4],mitochondrial network (total branch length) [5],ER volume [5],IC50 / potency relative to EN460 ([3]; compared with EN460),ERO1 inhibitory activity (in words) ([3]; compounds dissolved in DMSO)
"O=C(O)c1cc(N2N=C(C(F)(F)F)/C(=C\c3ccc(-c4ccccc4)o3)C2=O)ccc1Cl [EN460, reference compound]",inhibited Mao-A activity,inhibited PDI activity,6 µM,5.89,significantly reduced metabolic activity,selectively improved the mitochondrial network,did not change substantially,–,–
O=C1/C(=C/c2ccc(-c3ccccc3)o2)C(C(F)(F)F)=NN1c1ccccc1F [I29],inhibited Mao-A activity,inhibited PDI activity,2.6 µM and ~2.6 µM,2.63,significantly reduced metabolic activity; also recorded: higher potency than EN460,selectively improved the mitochondrial network,did not change substantially,more than two times lower; also recorded: twofold lower; also recorded: approximately twofold higher activity; also recorded: twofold increase in potency,highest potency
